Test results published in patent US20260209175A1, “PHARMACEUTICALLY ACCEPTABLE 5-METHOXY-N,N-DIMETHYL[…] AND COMPOSITIONS THEREOF” (priority 2022, published 2026).

How the values were obtained:
Format in all cases: physicochemical
[1] = Solubility assessments in four different media; conditions: 50 mg per vial; for Observation: 0.5 ml media at 37° C.
Experimental: Solubility assessments of 5-MeO-DMT oxalate, hydrobromide fumarate and benzoate were performed in four different media: […]

[2] = Dissolution rate in simulated nasal fluid (UV-fiber optic dissolution apparatus); conditions: 5 mg in 5 mL simulated nasal fluid, 37° C., 150 RPM
Experimental: The dissolution rate was determined using a method comprising the use of a UV-fiber optic-based dissolution apparatus (one such suitable device is the Rainbow® Dynamic Dissolution Monitor by Pion Inc) and simulated nasal fluid. The simulated nasal fluid comprises 7.45 g/L NaCl, 1.29 g/L KCl, 0.32 g/L CaCl2×2H2O and deionised water.
The dissolution apparatus was set up with a 2 mm probe to measure the dissolution rate. 5 mg of the salt form was transferred into 5 mL of simulated nasal fluid, heated to a constant temperature of 37° C. and stirred at 150 RPM using a crossed stirrer bar. Measurements were taken at 3 s intervals for 130 intervals followed by 60 measurements taken at 10 s intervals for a total time of 16 minutes and 30 s. Detection of dissolution is by UV absorbance.

[3] = Polymorphism screen of benzoate salt (thermal cycling, evaporations, antisolvent additions, cooling), XRPD
Experimental: To render the amorphous and thus remove seeds of the supplied pattern 1 the supplied material was lyophilised in an attempt to render it amorphous. To 2.396 g of the supplied benzoate salt lot 800674000 dioxane (55 ml) and water (5 ml) was added. The mixture was agitated gently and warmed to aid dissolution.
Twenty five of the lyophilised samples were treated with solvent and thermally cycled between ambient and 40° C. with four hours spent under each condition. After three days and solids were isolated by centrifuge filtration and analysed by XRPD.
Twelve samples of the lyophilised material were treated with a minimal volume (ca 0.5 ml) of warm solvent, syringe filtered through a 0.22 micrometre filter and added to a clean HPLC vial and allowed to evaporate at RT. The solvents used and XRPD results following evaporation are detailed in the Table below:
For antisolvent additions thirteen samples of the lyophilised material were dissolved in a small amount of hot solvent (^~0.5 ml). […] A large excess of antisolvent was then added, the vials sealed. After storage at RT overnight, and samples where no solid had been produced were first cooled to 4° C. for ^~24 hrs, and again if no solid was produced, they were cooled to −18° C. Any solids were isolated by centrifuge filtration and analysed by XRPD.
For the cooling experiments twelve samples of the lyophilised material were dissolved in a small amount of hot solvent (^~0.5 ml) and syringe filtered through a 0.22 μm filter into a clean HPLC vial. Samples were allowed to cool to RT, and if no solid was produced to 4° C. and then to −18° C. Solids were isolated by centrifuge filtration and analysed by XRPD.

Structure (SMILES): COc1ccc2[nH]cc(CCN(C)C)c2c1.O=C(O)c1ccccc1 [benzoate salt, 5-MeO-DMT benzoate]
- pH after addition of 0.5 ml media at 37° C. ([1]; SNF): 6.77
- Observation ([1]; SNF): Clear solution
- pH after addition of 0.5 ml media at 37° C. ([1]; pH 1.2 buffer): 5.28
- Observation ([1]; pH 1.2 buffer): Clear solution
- pH after addition of 0.5 ml media at 37° C. ([1]; pH 4.5 buffer): 5.22
- Observation ([1]; pH 4.5 buffer): Clear solution
- pH after addition of 0.5 ml media at 37° C. ([1]; pH 6.8 buffer): 6.82
- Observation ([1]; pH 6.8 buffer): Clear solution
- dissolution rate [2]: almost instantaneous
- XRPD Results ([3]; antisolvent addition, solvent DMF, anti solvent PhMe, Cooled −18 C., DJP2202-012-07): No solid
- XRPD Results ([3]; antisolvent addition, solvent EtOH, anti solvent Heptane, Some solid at RT, DJP2202-012-04): Pattern 1
- XRPD Results ([3]; antisolvent addition, solvent EtOH, anti solvent TBME, Cooled −18 C., DJP2202-012-03): No solid
- XRPD Results ([3]; antisolvent addition, solvent IPAC, anti solvent TBME, Cooled −18 C., DJP2202-012-08): No solid
- XRPD Results ([3]; antisolvent addition, solvent MEK, anti solvent Heptane, Some solid at RT, DJP2202-012-10): Pattern 2
- XRPD Results ([3]; antisolvent addition, solvent MEK, anti solvent TBME, Cooled −18 C., DJP2202-012-09): No solid
- XRPD Results ([3]; antisolvent addition, solvent MeCN, anti solvent PhMe, Some solid at RT, DJP2202-012-12): Pattern 4
- XRPD Results ([3]; antisolvent addition, solvent MeCN, anti solvent TBME, Cooled −18 C., DJP2202-012-11): No solid
- XRPD Results ([3]; antisolvent addition, solvent MeOH, anti solvent TBME, Cooled −18 C., DJP2202-012-02): No solid
- XRPD Results ([3]; antisolvent addition, solvent MeOH/water Aw 0.2, anti solvent MeOH, Cooled −18 C., DJP2202-012-01): No solid
- XRPD Results ([3]; antisolvent addition, solvent THF, anti solvent TBME, Cooled −18 C., DJP2202-012-05): No solid
- XRPD Results ([3]; antisolvent addition, solvent dioxane, anti solvent TBME, Cooled −18 C., DJP2202-012-06): No solid
- XRPD Results ([3]; cooling experiment, EtOH, Solid at RT, DJP2202-013-05): Pattern 4
- XRPD Results ([3]; cooling experiment, IPA, Solid at RT, DJP2202-013-06): Pattern 4
- XRPD Results ([3]; cooling experiment, IPAC, Solid at RT, DJP2202-013-10): Pattern 4
- XRPD Results ([3]; cooling experiment, MEK, Solid at RT, DJP2202-013-11): Pattern 2
- XRPD Results ([3]; cooling experiment, MeCN, Solid at RT, DJP2202-013-12): Pattern 4
- XRPD Results ([3]; cooling experiment, MeOH/water Aw 0.2, Cooled −18 C., DJP2202-013-01): Pattern 4
- XRPD Results ([3]; cooling experiment, MeOH/water Aw 0.6, Cooled −18 C., DJP2202-013-02): no solids
- XRPD Results ([3]; cooling experiment, MeOH, Cooled −18 C., DJP2202-013-04): no solids
- XRPD Results ([3]; cooling experiment, THF, Solid at RT, DJP2202-013-07): Pattern 4
- XRPD Results ([3]; cooling experiment, Water, Cooled −18 C., DJP2202-013-03): Pattern 4
- XRPD Results ([3]; cooling experiment, chlorobenzene, Solid at RT, DJP2202-013-09): mix #4 #2
- XRPD Results ([3]; cooling experiment, dioxane, Solid at RT, DJP2202-013-08): Pattern 3
- XRPD Result ([3]; evaporation at RT of lyophilised material from 1-PrOH, DJP2202-010-02): Oil
- XRPD Result ([3]; evaporation at RT of lyophilised material from EtOH, DJP2202-010-05): Oil
- XRPD Result ([3]; evaporation at RT of lyophilised material from IPA, DJP2202-010-06): Pattern 4
- XRPD Result ([3]; evaporation at RT of lyophilised material from IPAC, DJP2202-010-10): Pattern 2
- XRPD Result ([3]; evaporation at RT of lyophilised material from MEK, DJP2202-010-11): Pattern 4
- XRPD Result ([3]; evaporation at RT of lyophilised material from MIBK, DJP2202-010-04): Oil
- XRPD Result ([3]; evaporation at RT of lyophilised material from MeCN, DJP2202-010-12): Pattern 4
- XRPD Result ([3]; evaporation at RT of lyophilised material from THF, DJP2202-010-07): Pattern 4
- XRPD Result ([3]; evaporation at RT of lyophilised material from chlorobenzene, DJP2202-010-09): Pattern 4
- XRPD Result ([3]; evaporation at RT of lyophilised material from dioxane, DJP2202-010-08): Pattern 4
- XRPD Result ([3]; thermal cycle ambient/40° C., 3 days, 1,4-Dioxane 200 μl, isolated after thermal cycle, DJP2202-006-01): Pattern 3
- XRPD Result ([3]; thermal cycle ambient/40° C., 3 days, 1-Propanol 200 μl, isolated after thermal cycle, DJP2202-006-02): Pattern 4
- XRPD Result ([3]; thermal cycle ambient/40° C., 3 days, 2-Butanol 200 μl, isolated after thermal cycle, DJP2202-006-03): Pattern 4
- XRPD Result ([3]; thermal cycle ambient/40° C., 3 days, 2-Me-1-PrOH 200 μl, isolated after thermal cycle, DJP2202-006-21): Pattern 4
- XRPD Result ([3]; thermal cycle ambient/40° C., 3 days, 2-Methyltetrahydrofuran 200 μl, isolated after thermal cycle, DJP2202-006-05): Pattern 4
- XRPD Result ([3]; thermal cycle ambient/40° C., 3 days, 2-Propanol 200 μl, isolated after thermal cycle, DJP2202-006-06): Pattern 4
- XRPD Result ([3]; thermal cycle ambient/40° C., 3 days, Acetone 200 μl, isolated after thermal cycle, DJP2202-006-07): Pattern 4
- XRPD Result ([3]; thermal cycle ambient/40° C., 3 days, Acetonitrile 200 μl, isolated after thermal cycle, DJP2202-006-08): Pattern 4
- XRPD Result ([3]; thermal cycle ambient/40° C., 3 days, Anisole 200 μl, isolated after thermal cycle, DJP2202-006-09): Pattern 4
- XRPD Result ([3]; thermal cycle ambient/40° C., 3 days, Chlorobenzene 200 μl, isolated after thermal cycle, DJP2202-006-10): Pattern 4 +
- XRPD Result ([3]; thermal cycle ambient/40° C., 3 days, Ethanol 150 μl, isolated after thermal cycle, DJP2202-006-11): Pattern 4
- XRPD Result ([3]; thermal cycle ambient/40° C., 3 days, Ethyl acetate 200 μl, isolated after thermal cycle, DJP2202-006-12): Pattern 4
- XRPD Result ([3]; thermal cycle ambient/40° C., 3 days, Formamide 150 μl, isolated after thermal cycle, DJP2202-006-17): Pattern 4
- XRPD Result ([3]; thermal cycle ambient/40° C., 3 days, Isopropyl acetate 200 μl, isolated after thermal cycle, DJP2202-006-13): Pattern 4
- XRPD Result ([3]; thermal cycle ambient/40° C., 3 days, MeOH/water 360/640 Calc Aw 0.821, 200 μl, clear solution, evaporated to solid, DJP2202-006-25): Pattern 1
- XRPD Result ([3]; thermal cycle ambient/40° C., 3 days, MeOH/water 693/307 Calc Aw 0.599, 200 μl, clear solution, evaporated to solid, DJP2202-006-24): Pattern 1
- XRPD Result ([3]; thermal cycle ambient/40° C., 3 days, Methanol 200 μl, clear solution, evaporated to solid, DJP2202-006-14): Pattern 1
- XRPD Result ([3]; thermal cycle ambient/40° C., 3 days, Methylethyl ketone 200 μl, isolated after thermal cycle, DJP2202-006-16): Pattern 4
- XRPD Result ([3]; thermal cycle ambient/40° C., 3 days, Propyl acetate 200 μl, isolated after thermal cycle, DJP2202-006-15): Pattern 4
- XRPD Result ([3]; thermal cycle ambient/40° C., 3 days, Tetrahydrofuran 200 μl, isolated after thermal cycle, DJP2202-006-22): Pattern 4
- XRPD Result ([3]; thermal cycle ambient/40° C., 3 days, iso-Propyl acetate 200 μl, isolated after thermal cycle, DJP2202-006-20): Pattern 4
